1 compound from PMC3202339 (2011) can be followed below.

pIC50: −log10 of the molar value.

For orientation: pIC50 means −log10 of the IC50, conventionally taken in molar units.

The target in this test is TRPV1 (Mus musculus, UniProt Q704Y3). As to the kind of experiment: whole-cell patch clamp, inhibition of capsaicin. It is filed as cell-based. On the technique in general: Patch clamp records ionic current or voltage across a cell membrane.
TRPV1, sequence (Q704Y3 whole entry): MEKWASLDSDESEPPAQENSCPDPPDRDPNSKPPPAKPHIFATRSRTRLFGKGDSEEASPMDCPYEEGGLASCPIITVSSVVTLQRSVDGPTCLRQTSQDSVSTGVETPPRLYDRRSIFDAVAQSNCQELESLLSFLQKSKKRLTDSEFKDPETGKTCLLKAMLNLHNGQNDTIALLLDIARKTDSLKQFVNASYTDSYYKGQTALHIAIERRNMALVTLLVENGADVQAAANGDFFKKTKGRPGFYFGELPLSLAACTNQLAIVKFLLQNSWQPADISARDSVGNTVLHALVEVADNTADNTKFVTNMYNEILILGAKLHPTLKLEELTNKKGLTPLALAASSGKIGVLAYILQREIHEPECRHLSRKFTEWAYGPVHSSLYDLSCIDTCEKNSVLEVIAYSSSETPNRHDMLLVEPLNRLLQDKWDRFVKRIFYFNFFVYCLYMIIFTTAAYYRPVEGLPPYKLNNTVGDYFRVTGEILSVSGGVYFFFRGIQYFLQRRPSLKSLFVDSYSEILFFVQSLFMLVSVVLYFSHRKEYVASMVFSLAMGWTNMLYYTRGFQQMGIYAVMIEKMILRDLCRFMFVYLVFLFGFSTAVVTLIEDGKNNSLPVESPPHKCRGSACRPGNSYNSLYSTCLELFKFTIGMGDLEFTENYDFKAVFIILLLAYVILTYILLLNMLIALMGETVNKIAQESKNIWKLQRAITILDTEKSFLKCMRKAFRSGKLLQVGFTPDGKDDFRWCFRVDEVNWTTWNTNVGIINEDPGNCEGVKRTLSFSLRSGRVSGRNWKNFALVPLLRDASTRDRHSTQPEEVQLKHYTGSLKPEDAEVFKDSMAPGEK

Compound `CC(C)(C)c1ccc(/C=C/C(=O)Nc2ccc3c(c2)OCCO3)cc1` [AMG9810] gave a pIC50 of 6.79.
